Experimental data as given in US20070027215A1, “Nuclear receptor ligands and ligand binding domains” (The Regents of the University of California, priority 1995, published 2007).
Like-named read-outs stand apart in the source and are kept apart here.

Experiments:
TR binding to RIP-140 = experiment: RIP-140 coactivation assay (35S-RIP-140 binding to liganded TR); format: biochemical; set-up: key: +: RIP-140 Binding; −: RIP-140 Binding
Procedure: To test the ability of TR ligands to activate the binding of TR to the nuclear activation protein RIP-140 (a nuclear protein that can bind to nuclear receptors, such as the estrogen receptor), a TR ligand is liganded to TR and then incubated with RIP-140 as described in V. Cavailles, et al., EMBO J., 14(15):3741-3751 (1995), which is incorporated by reference herein. In this assay, 35S-RIP-140 protein binds to liganded TR but not unliganded TR.

thyroid receptor (TR) = experiment: Receptor binding assay with TR from rat liver nuclei and [125I]T3; settings: TR from rat liver nuclei, 1 nM [125I]T3, overnight at 4° C.; read-out: App.Kd
Procedure: Baxter, and […]. […] The apparent Kd's are calculated using the method described by […]

[1] = test system: thyroid hormone receptors (TRs); experiment: CAT reporter gene activation in cultured cells; format: cell-based; settings: U-937
Procedure: To test TR activation of transcription in a cellular environment, TR ligands are assayed for their ability to activate a reporter gene, chloramphenicol transferase (“CAT”), which has a TR DNA binding sequence operatively linked to it. Either GC or […] cells (available from the ATCC) can be used, respectively). In such assays, a TR ligand crosses the cell membrane, binds to the TR, and activates the TR, which in turn activates gene transcription of the CAT by binding the TR DNA binding region upstream of the CAT gene. The effective concentration for half maximal gene activation (EC50) is determined by assaying CAT gene activation at various concentrations as described herein and in the literature.
After electroporation, cells are pooled in growth medium (RPMI with 10% charcoal-treated, hormone stripped, newborn bovine serum), plated in 6-well dishes and treated with either ethanol or hormone. CAT activity is determined 24 hours later as described D. C. Leitman, R. C.

TR-α = target: T1, TR-α (Homo sapiens, UniProt P10827); experiment: Binding to TR isoform TR-α
T1 sequence (P10827 1-410 isoform P10827-2): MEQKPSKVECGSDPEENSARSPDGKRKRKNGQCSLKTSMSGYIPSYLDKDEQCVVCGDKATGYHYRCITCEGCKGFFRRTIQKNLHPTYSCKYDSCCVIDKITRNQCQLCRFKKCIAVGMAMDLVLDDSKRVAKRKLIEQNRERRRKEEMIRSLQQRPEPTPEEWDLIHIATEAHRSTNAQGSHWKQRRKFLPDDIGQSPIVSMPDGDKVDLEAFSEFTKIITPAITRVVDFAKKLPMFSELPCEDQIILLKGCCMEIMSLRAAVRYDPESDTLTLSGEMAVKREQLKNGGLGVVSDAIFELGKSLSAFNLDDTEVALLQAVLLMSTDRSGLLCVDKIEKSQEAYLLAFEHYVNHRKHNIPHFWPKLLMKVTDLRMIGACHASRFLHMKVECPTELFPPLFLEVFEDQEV
Description: Assays for determining selective binding to the TR-α or TR-β LBD can include reporter assays, as described herein.

TR-β = target: T2, TR-β (Homo sapiens, UniProt P10828); experiment: Binding to TR isoform TR-β
T2 sequence (P10828 1-461): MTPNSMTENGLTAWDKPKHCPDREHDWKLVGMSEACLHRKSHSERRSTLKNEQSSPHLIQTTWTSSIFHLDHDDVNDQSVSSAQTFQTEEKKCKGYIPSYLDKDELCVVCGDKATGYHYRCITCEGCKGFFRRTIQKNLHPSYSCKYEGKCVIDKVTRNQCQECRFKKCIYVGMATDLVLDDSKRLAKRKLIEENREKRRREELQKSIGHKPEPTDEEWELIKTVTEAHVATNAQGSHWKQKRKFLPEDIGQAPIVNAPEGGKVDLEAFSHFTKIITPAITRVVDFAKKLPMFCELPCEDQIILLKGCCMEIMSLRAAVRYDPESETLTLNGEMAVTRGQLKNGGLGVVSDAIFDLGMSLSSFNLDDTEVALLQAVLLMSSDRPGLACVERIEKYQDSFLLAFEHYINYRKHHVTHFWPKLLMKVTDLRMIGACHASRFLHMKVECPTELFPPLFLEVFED
Procedure: 3,5-dibromo-4-(3′,5′-diisopropyl-4′-hydroxyphenoxy)Benzoic Acid is a TR-α Selective Synthetic Ligand. [drawing 4] 3,5-dibromo-4-(3′,5′-diisopropyl-4′-hydroxyphenoxy)benzoic acid (Compound 11), the structure of which is drawn above, is assayed for binding to the two different isoforms of the TR, TR-α and TR-β. […] Assays for determining selective binding to the TR-α or TR-β LBD can include reporter assays, as described herein. See also Hollenberg, et al., J. Biol. Chem., (1995) 270(24):14274-14280.

human TR-α LBD = target: T3, human TR-α LBD (Homo sapiens, UniProt P10827); experiment: Competition for [125I]T3 binding, native TR-α; settings: read-out: Binding Affinity, Native TR-α; competition with 1 nM [125I]T3
T3 sequence (P10827 163-410 isoform P10827-2 limits assumed): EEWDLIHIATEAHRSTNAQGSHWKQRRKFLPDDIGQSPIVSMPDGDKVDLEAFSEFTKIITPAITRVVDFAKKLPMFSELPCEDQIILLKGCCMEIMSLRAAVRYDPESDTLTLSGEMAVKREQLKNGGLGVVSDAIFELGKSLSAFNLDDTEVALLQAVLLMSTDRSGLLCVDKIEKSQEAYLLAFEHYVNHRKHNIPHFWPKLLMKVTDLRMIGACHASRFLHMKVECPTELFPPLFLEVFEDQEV

TR [2] = settings: cited from earlier work
human TR-β LBD = target: T4, human TR-β LBD (Homo sapiens, UniProt P10828); experiment: Competition for [125I]T3 binding, native TR-β; settings: read-out: Binding Affinity, Native TR-β
T4 sequence (P10828 217-461 limits assumed): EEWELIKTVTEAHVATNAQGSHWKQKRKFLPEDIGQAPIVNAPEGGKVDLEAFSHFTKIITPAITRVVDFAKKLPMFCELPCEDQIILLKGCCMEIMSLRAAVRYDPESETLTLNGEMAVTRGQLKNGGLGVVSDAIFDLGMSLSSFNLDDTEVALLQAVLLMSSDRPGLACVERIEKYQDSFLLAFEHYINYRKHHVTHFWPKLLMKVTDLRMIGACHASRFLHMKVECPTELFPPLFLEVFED
Procedure: Assays are performed in duplicate.
The following assays residues involved in selective binding among TR isoforms.

TR [3] = experiment: Receptor binding affinity stated in the structure discussion
[4] = half maximal CAT gene activation, GC or U937 cells, read-out: EC50

Row | Structure (SMILES) | Coactivation Assay RIP-140 (TR binding to RIP-140) | Kd (thyroid receptor (TR)) [nM] | EC50 [1, 4] [nM] | also measured
1 | CC(C)c1cc(Oc2c(Br)cc(C(=O)O)cc2Br)cc(C(C)C)c1O [Compound 11, 3,5-dibromo-4-(3′,5′-diisopropyl-4′-hydroxyphenoxy)benzoic acid] |  |  |  | IC50 (TR-α): 1600 nM; IC50 (TR-β): 910 nM
2 | CC(C)c1cc(Oc2c(Br)cc(C[C@H](N)C(=O)O)cc2Br)ccc1O [IpBr2, 3,5-dibromo-3′-isopropylthyronine] |  |  |  | Kd (human TR-α LBD): 0.017 nM
3 | Cc1cc(C[C@H](N)C(=O)O)cc(C)c1Oc1ccc(O)c(C(C)C)c1 [Dimit, 3,5-dimethyl-3′-isopropylthyronine] |  |  |  | Kd (human TR-β LBD): 8 nM; Kd (human TR-α LBD): 6 nM
4 | N[C@@H](Cc1cc(I)c(Oc2ccc(O)c(I)c2)c(I)c1)C(=O)O [Compound T3, 3,5,3′-triiodothyronine, reference compound] | + |  |  | EC50 [1]: 0.1 nM
5 | O=C(O)Cc1cc(I)c(Oc2ccc(O)c(I)c2)c(I)c1 [Triac, 3,5,3′-triiodothyroacetic acid] |  |  |  | affinity for the alpha versus beta isoforms (TR [3]): equal affinity; binding affinity compared with T3 (TR [2]): equal to that of T3

Further lines, with some results ahead:

Row | Coactivation Assay RIP-140 (TR binding to RIP-140) | Kd (thyroid receptor (TR)) [nM] | EC50 [1, 4] [nM] | Structure (SMILES) | also measured
6 | + | 4 | 100 | O=C(N[C@@H](Cc1cc(I)c(Oc2ccc(O)c(I)c2)c(I)c1)C(=O)O)C(c1ccccc1)c1ccccc1 [TS1] | 
7 | + |  | 1 | N[C@@H](Cc1cc(I)c(Oc2cc(I)c(O)c(I)c2)c(I)c1)C(=O)O [Compound T4, 3,5,3′,5′-tetraiodo-L-thyronine, reference compound] | affinity for the receptor as % of the affinity of T3 (TR [2]): 2%
8 |  | 1400 |  | CCCCCCCCCCCCCCCCC(=O)N[C@@H](Cc1cc(I)c(Oc2ccc(O)c(I)c2)c(I)c1)C(=O)O [TS2] | 
9 | + | 220 | 1000 | CC(C)(C)OC(=O)NC(Cc1cc(I)c(Oc2ccc(O)cc2)c(I)c1)C(=O)O (stereo not shown) [TS5] | 
10 | + |  |  | CC(C)c1cc(Oc2c(I)cc(CC(N)C(=O)O)cc2I)ccc1O (stereo not shown) [TS9, reference compound] | 
11 | + | 4 | 10 | O=C(N[C@@H](Cc1cc(I)c(Oc2ccc(O)c(I)c2)c(I)c1)C(=O)O)OCC1c2ccccc2-c2ccccc21 [TS3] | 
12 | + | 8 |  | CC(C)(C)OC(=O)N[C@@H](Cc1cc(I)c(Oc2ccc(O)c(I)c2)c(I)c1)C(=O)O [TS4] | 
